Data on six molecules can be found in US20220259558A1, “METHODS FOR OBTAINING EYE FIELD PROGENITOR CELLS FROM HUMAN PLURIPOTENT STEM CELLS” (Novo Nordisk A/S, priority 2019, published 2022).

In assay [1] the test system is hESC. Description: Protein expression of hESC-derived progenitor cells by flow cytometry. The conditions noted are these: after 21 days, single SMAD inhibitor (GW788388). Format: cell-based, human. The protocol: More than 40% of the cells show co-expression of the markers PAX6/MITF.
More than 50% of the cells show co-expression of the markers PAX6/VSX2.
(§1) hESC-RPE monolayer differentiation hESC were plated at a cell density of 5.5×10^4 cells/cm2 on hrLN-332 laminin coated dishes at 10 μg/mL (Biolaminin 332 LN, Biolamina) using NutriStem hPSC XF medium. Rho-kinase inhibitor (Y-27632, Millipore) at a concentration of 10 μM was added during the first 24 hours, while cells were kept at 37° C., 5% CO2. After 24 hours, the culture medium was replaced with differentiation medium according to the examples. The differentiation media “GMEM” in the following examples is always supplemented with Penicillin-Streptomycin solution (20 units/ml; Thermo Fisher), beta-Mercaptoethanol (0.5 mM; Thermo Fisher), Sodium pyruvate (1 mM; Thermo Fisher), Non-Essential Amino Acids (1×; Thermo Fisher).
In order to provide quantitative data of the cells generated with our BMP5-based protocol, we analysed the eye field progenitor cells generated under treatment with BMP5 for NR progenitor cells or with BMP5 and CHIR99021 for RPE progenitor cells by flow cytometry. Moreover, we tested single SMAD inhibition by removing NOGGIN from the protocol.

The test system of assay [2] is hESC. In words: Differentiation of hESC into eye field progenitor cells, marker-positive cells by immunofluorescence. Format: cell-based, human.
Text: FIGS. 2A and 2B show the effect of human BMP5 and Activin A on the differentiation of hESC into VSX2 and MITF positive cells. Immunofluorescence showing conditions 1 and 2, without BMP5 or Activin A, with poor levels of MITF or VSX2. In contrast, the addition of BMP5 from day 12 (conditions 3 and 4), increase the number of cells positive for MITF and VSX2. The addition of Activin A from day 15, in combination with BMP5, has no clear additional effect. In contrast, the use of Activin A alone from day 12, or combination with BMP5 from day 15 (conditions 5 and 6), generates a lower number of cells positive for MITF and VSX2. […] The combination of IHH (Indian Hedgehog) and DKK2 (Dickkopf WNT Signaling Pathway Inhibitor 2) might help in the generation of MITF/VSX2 positive cells.
An initial treatment with the small molecule GW788388, NOGGIN and Endo IWR1 for 12 days, followed by a treatment with BMP5, IHH and DKK2 generates high numbers of PAX6/OTX2 double positive cells addressed by immunofluorescence. DAPI is used for nuclear staining of all cells.
The use of BMP5 induces the generation of MITF and VSX2 positive cells (second row), addressed by immunofluorescence, indicating the generation of neural retina progenitor cells. In contrast, the addition of the GSK3 inhibitor CHIR99021 (lower row) drastically blocks the expression of VSX2, and reinforces the expression of MITF and the generation of MITF positive cells with cobblestone morphology. This is indicative of RPE progenitor cells. First row, control without BMP5. DAPI is used for nuclear staining of all cells.
as §1
In order to differentiate hESC into eye progenitor cells, we tested the effect of BMP5 in different conditions in combination with small molecules and recombinant proteins that mimics developmental cues. We relied on sequential activation and/or repression of the common developmental pathways associated to eye development for our differentiation protocol and combined with activation of BMP pathway by BMP5. After cell dissociation, hESC line expanded on LN-521 were dissociated to single cells and seeded on LN-332 for differentiation. These cells adapted well to this laminin.
We decided to explore the inhibition of GSK3 with the small molecule CHIR99021 in combination with BMP5, and to remove the WNT inhibitor Endo IWR1 from the protocol, as GSK3 inhibition might activate canonical (beta-Catenin dependent) WNT signalling.
We decided to explore the effect of another SMAD inhibitor, RepSOX, in combination with NOGGIN, and to combine with BMP5 and CHIR99021 to obtain RPE progenitor cells positive for MITF. This will indicate if different SMAD inhibitors could be used in our BMP5-based protocol.

The test system of assay [3] is hESC. In words: RNA (gene) expression analysis of differentiated hESC, real-time PCR. Format: cell-based, human. The conditions noted are these: for induction of gene expression of markers of eye field progenitor cells with a RPE progenitor cell identity: comparison of BMPs, day 7-21, with CHIR99021 day 12-21, single SMAD inhibition. The protocol:
The graphs indicate the cycle threshold (CT) values from real-time polymerase chain reaction (PCR). Differentiated cells with BMP5 are collected at day 21 and RNA extracted, converted to cDNA and RNA expression analyses performed. hESC are used as comparison and CT values are inversely proportional to mRNA level.
RNA expression of RPE progenitor cell-related genes was quantified. Note that 200 ng/ml and 1000 ng/ml of BMP5 treatment promote the expression of RPE progenitor genes.
RNA expression of neural retina progenitor genes was quantified. 200 ng/ml and 1000 ng/ml of BMP5 treatment promote the expression of neural retina progenitor cell genes.
The effect of BMP5 is compared to that of BMP4, BMP7 and BMP4/7 heterodimer.
as §1
We analyzed gene expression at day 21 on cells that were generated with the following protocol, […]
In general terms: Quantitative PCR measures a nucleic acid by following its amplification.

The test system of assay [4] is human embryonic stem cells (hESC). Description: Initial attachment of hESC on different laminins after single cell seeding (brightfield). The conditions noted are these: after 12 hours; hESC grown and maintained on LN-521, single cell seeding. Format: cell-based. As to the method:
LN-332 can be used for further differentiation.
An internally generated hESC line was maintained on human recombinant laminin (hrLN) coated plates (Biolaminin 521 LN, Biolamina) in NutriStem hPSC XF medium (Biological Industries), in a 5% CO2 incubator at 37° C. and passaged enzymatically at 1:10-1:20 ratio every 3-5 days. For passaging, confluent cultures were washed once with phosphate buffered saline (PBS) without calcium and magnesium ions and incubated for 5 min at 37° C. with TrypLE Select (GIBCO, Thermo Fisher Scientific). The enzyme was then carefully removed and the cells were collected in fresh NutriStem hPSC XF medium by gentle pipetting to obtain single cell suspension and the required volume plated on a freshly hrLN-521 coated dish. After passage, the medium was replaced with fresh prewarmed NutriStem hPSC XF medium and changed daily.
hESC-RPE monolayer differentiation hESC were plated at a cell density of 5.5×10^4 cells/cm2 on hrLN-332 laminin coated dishes at 10 μg/mL (Biolaminin 332 LN, Biolamina) using NutriStem hPSC XF medium. Rho-kinase inhibitor (Y-27632, Millipore) at a concentration of 10 μM was added during the first 24 hours, while cells were kept at 37° C., 5% CO2. After 24 hours, the culture medium was replaced with differentiation medium according to the examples. […]

[5] abbreviates: Example 1, immunofluorescence, factor from day 12 after NOGGIN+GW788388+Endo IWR1, to day 21.

On to “BMP5: human bone morphogenetic protein 5, recombinant protein (R&D systems), SEQ ID NO: 1”, for which, in the assay on hESC [1], the PAX6-positive cells result is recorded as “more than 95%” and the “double positive cells PAX6/VSX2” value is “more than 50%”. Also, in the assay with hESC [2] (setting [5]), the “generation of MITF and VSX2-positive cells” value was “generated MITF and VSX2-positive cells”. Moreover, the “generation of MITF and VSX2-positive cells” value in the assay on hESC [2] (Example 2, dual SMAD inhibition (NOGGIN+GW788388), BMP5 from day 7 to day 21) was “strongly generated MITF and VSX2-positive cells”. Moreover, the “generation of double PAX6/OTX2 positive cells” value with hESC [2] (immunofluorescence, GW788388, NOGGIN and Endo IWR1 for 12 days, then BMP5, IHH and DKK2) is on record as “induces the generation of double PAX6/OTX2 positive cells”. For the same molecule, the “best condition (BMP5 concentration) to induce eye field progenitor cells with a RPE progenitor cell identity” value with hESC [3] (0, 0.1, 200 and 1000 ng/ml tested, day 7-21, with CHIR99021 day 12-21, gene expression day 21) was 200 ng/mL. Also, the “best condition (BMP5 concentration) to generate eye field progenitor cells with a NR progenitor cell identity” value in the assay with hESC [3] (0, 0.1, 200 and 1000 ng/ml tested, day 7-21, VSX2 gene expression day 21) is 200 ng/mL. Also, in the assay on hESC [3] (BMP5 at 1000 ng/ml), the “effect on generation of eye field progenitor cells” value was “positive but milder effect”. Also, in the assay with hESC [3], the “induction of gene expression of markers of eye field progenitor cells with a RPE progenitor cell identity” value (shortened to “induction”) was “superior effect”. In the assay with hESC [3] (day 21, CT values, compared to hESC), the “MITF, PAX6 and VSX2 mRNA levels” value is “increased compared to hESC”.

On to “LN-332: human recombinant laminin isoform 332 (Biolaminin 332 LN, Biolamina), coating matrix”, for which the “initial attachment of hESC” value in assay [4] is given as “excellent attachment”.

B1: Activin A: Recombinant protein (R&D systems/Peprotech) (protein, UniProt P08476 311-426, looked up)
Inhibin beta A chain: GLECDGKVNICCKKQFFVSFKDIGWNDWIIAPSGYHANYCEGECPSHIAGTSGSSLSFHSTVINHYRMRGHSPFANLKSCCVPTKLRPMSMLYYDDGQNIIKKDIQNMIVEECGCS
modifications: Inhibin beta A chain
Regarding B1, in the assay on hESC [2] (setting [5]), the “generation of MITF and VSX2-positive cells” value is on record as “negative effect”.

B2: BMP4: member of the BMP family compared to BMP5 (protein, UniProt P12644 293-408, looked up)
Bone morphogenetic protein 4: SPKHHSQRARKKNKNCRRHSLYVDFSDVGWNDWIVAPPGYQAFYCHGDCPFPLADHLNSTNHAIVQTLVNSVNSSIPKACCVPTELSAISMLYLDEYDKVVLKNYQEMVVEGCGCR
With B2, in the assay with hESC [3], the “induction” value is recorded as “least capacity to induce these markers”.

B3: BMP7: member of the BMP family compared to BMP5 (protein, UniProt P18075 293-431, looked up)
Bone morphogenetic protein 7: STGSKQRSQNRSKTPKNQEALRMANVAENSSSDQRQACKKHELYVSFRDLGWQDWIIAPEGYAAYYCEGECAFPLNSYMNATNHAIVQTLVHFINPETVPKPCCAPTQLNAISVLYFDDSSNVILKKYRNMVVRACGCH
As for B3, in the assay with hESC [3], the “induction” value was “better than BMP4”.

B4: DKK2: Dickkopf WNT Signaling Pathway Inhibitor 2, recombinant protein (protein, UniProt Q9UBU2 34-259, looked up)
Dickkopf-related protein 2: KLNSIKSSLGGETPGQAANRSAGMYQGLAFGGSKKGKNLGQAYPCSSDKECEVGRYCHSPHQGSSACMVCRRKKKRCHRDGMCCPSTRCNNGICIPVTESILTPHIPALDGTRHRDRNHGHYSNHDLGWQNLGRPHTKMSHIKGHEGDPCLRSSDCIEGFCCARHFWTKICKPVLHQGEVCTKQRKKGSHGLEIFQRCDCAKGLSCKVWKDATYSSKARLHVCQKI
For the molecule B4, the “generation of MITF and VSX2-positive cells” value in the assay with hESC [2] (setting [5]) is “not sufficient to generate MITF or VSX2-positive cells”.
